Assay results from ChEMBL document CHEMBL1201862, “PubChem BioAssay data set” (2004).
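These data come from cells grown in 96-well plates and exposed to compound for 48 hours at five concentrations. At the GI50, growth is halved.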 The source made the active and inactive calls. Cut-off read from the data, not from the text of the source: active = GI50 up to about 1.1 µM and inactive = higher.

Experiments:
Experiment in all cases: growth of human tumour cells (NCI), 48 h
ACHN = tested on: ACHN
HCT-116 = tested on: HCT-116
HCT-15 = tested on: HCT-15
HOP-62 = tested on: HOP-62
Hs-578T = tested on: Hs-578T
MDA-MB-231 = tested on: MDA-MB-231
MDA-MB-435 = tested on: MDA-MB-435
MDA-N = tested on: MDA-N
MOLT-4 = tested on: MOLT-4
NCI-H23 = tested on: NCI-H23
NCI-H522 = tested on: NCI-H522
NCI/ADR-RES = tested on: NCI/ADR-RES
OVCAR-3 = tested on: OVCAR-3
OVCAR-8 = tested on: OVCAR-8
RXF 393 = tested on: RXF 393
SF-539 = tested on: SF-539
SK-MEL-28 = tested on: SK-MEL-28
SNB-19 = tested on: SNB-19
U-251 = tested on: U-251

Structure (SMILES)	GI50 (ACHN)	GI50 (HCT-116)	GI50 (HCT-15) [µM]	GI50 (HOP-62)	GI50 (Hs-578T)	GI50 (MDA-MB-231)	GI50 (MDA-MB-435)	GI50 (MDA-N)	GI50 (MOLT-4)	GI50 (NCI-H23)	GI50 (NCI-H522)	GI50 (NCI/ADR-RES)	GI50 (OVCAR-3)	GI50 (OVCAR-8)	GI50 (RXF 393)	GI50 (SF-539)	GI50 (SK-MEL-28)	GI50 (SNB-19)	GI50 (U-251)
COc1ccc(Cn2c3ccc([N+](=O)[O-])cc3c(=O)n2Cc2ccccn2)cc1	87.9 µM (inactive)	> 100 µM (inactive)	> 100	> 100 µM (inactive)	> 100 µM (inactive)	> 100 µM (inactive)	76.4 µM (inactive)	40.6 µM (inactive)	31.3 µM (inactive)	66.2 µM (inactive)	66.4 µM (inactive)	39.7 µM (inactive)	> 100 µM (inactive)	57.7 µM (inactive)	86.5 µM (inactive)	> 100 µM (inactive)	> 100 µM (inactive)	> 100 µM (inactive)	> 100 µM (inactive)
CC(=O)Oc1c(C)cc2c(c1C)C(C)(C)CN2C(=O)C(C)(C)C	> 100 µM (inactive)	67.9 µM (inactive)	> 100	> 100 µM (inactive)	> 100 µM (inactive)	> 100 µM (inactive)	77.8 µM (inactive)	> 100 µM (inactive)	25.4 µM (inactive)	81.1 µM (inactive)	> 100 µM (inactive)	45.3 µM (inactive)	25.2 µM (inactive)	> 100 µM (inactive)	84.9 µM (inactive)	> 100 µM (inactive)	> 100 µM (inactive)	> 100 µM (inactive)	> 100 µM (inactive)
Nc1ccc(C(=O)CC(N)C(=O)O)cc1O (stereo not given)	> 100 µM (inactive)	> 100 µM (inactive)	> 100	> 100 µM (inactive)	> 100 µM (inactive)	> 100 µM (inactive)	> 100 µM (inactive)	> 100 µM (inactive)	> 100 µM (inactive)	> 100 µM (inactive)	> 100 µM (inactive)	> 100 µM (inactive)	> 100 µM (inactive)	> 100 µM (inactive)	> 100 µM (inactive)	> 100 µM (inactive)	> 100 µM (inactive)	> 100 µM (inactive)	> 100 µM (inactive)
C=C(c1ccccc1)C1ON(C)CCc2cc(OC)c(OC)cc21 (stereo not given)	84.7 µM (inactive)	43.4 µM (inactive)	68.1	> 100 µM (inactive)	18.3 µM (inactive)	53.6 µM (inactive)	84.9 µM (inactive)	> 100 µM (inactive)	89.3 µM (inactive)	66.2 µM (inactive)	56.4 µM (inactive)	48.4 µM (inactive)	> 100 µM (inactive)	> 100 µM (inactive)	> 100 µM (inactive)	> 100 µM (inactive)	45.1 µM (inactive)	> 100 µM (inactive)	> 100 µM (inactive)
O=C(O)CCO/N=C1/C(=C2/C(=O)Nc3ccccc32)Nc2ccccc21	15.2 µM (inactive)	12.3 µM (inactive)	6.58	26.4 µM (inactive)	21.1 µM (inactive)	37.4 µM (inactive)	29.6 µM (inactive)	28.8 µM (inactive)	17.1 µM (inactive)	17.7 µM (inactive)	50.6 µM (inactive)	42.2 µM (inactive)	11.7 µM (inactive)	38.1 µM (inactive)	3.61 µM (inactive)	38.3 µM (inactive)	33.3 µM (inactive)	40.5 µM (inactive)	30.3 µM (inactive)
O=C(O)CC1C(=O)OC2C3COC(=O)c4cc(O)c(O)c(O)c4-c4c(cc(O)c(O)c4O)C(=O)OC2C(OC(=O)c2cc(O)c(O)c4c2C1C(O)C(=O)O4)C(OC(=O)c1cc(O)c(O)c(O)c1)O3 (stereo not given)	30.4 µM (inactive)	14.6 µM (inactive)	17.5	> 100 µM (inactive)	56.5 µM (inactive)	26.2 µM (inactive)	26.4 µM (inactive)	24.1 µM (inactive)	27.3 µM (inactive)	49.3 µM (inactive)	15.9 µM (inactive)	16.7 µM (inactive)	18 µM (inactive)	20.5 µM (inactive)	4.39 µM (inactive)	52.5 µM (inactive)	95.5 µM (inactive)	> 100 µM (inactive)	23.9 µM (inactive)
c1ccc2c(c1)-c1ccccc1C2NC1=NCCO1	28.8 µM (inactive)	16.7 µM (inactive)	9.4	22.5 µM (inactive)	55 µM (inactive)	24.3 µM (inactive)	23 µM (inactive)	11.8 µM (inactive)	29.4 µM (inactive)	34.1 µM (inactive)	25.6 µM (inactive)	23.4 µM (inactive)	23.1 µM (inactive)	20.8 µM (inactive)	42.2 µM (inactive)	21.7 µM (inactive)	24.9 µM (inactive)	36.6 µM (inactive)	31.3 µM (inactive)
CC(C)CNC(=O)c1c(NC(=O)c2ccccc2)sc2[nH]c(=O)n(-c3ccccc3)c(=O)c12	13.8 µM (inactive)	> 86.3 µM (inactive)	> 100	15.3 µM (inactive)	14.3 µM (inactive)	23.2 µM (inactive)	> 100 µM (inactive)	> 100 µM (inactive)	51.3 µM (inactive)	80.5 µM (inactive)	43.7 µM (inactive)	> 97.5 µM (inactive)	> 100 µM (inactive)	> 100 µM (inactive)	16.6 µM (inactive)	46 µM (inactive)	> 100 µM (inactive)	24 µM (inactive)	31.3 µM (inactive)
COc1ccc2nc(NC(=O)/C(C#N)=C/c3ccccc3)sc2c1	35.6 µM (inactive)	24.7 µM (inactive)	24.7	> 64.1 µM (inactive)	> 48.5 µM (inactive)	> 79.8 µM (inactive)	24.5 µM (inactive)	34.8 µM (inactive)	27.5 µM (inactive)	> 67.3 µM (inactive)	15.2 µM (inactive)	> 39 µM (inactive)	18.4 µM (inactive)	> 51.6 µM (inactive)	> 61.4 µM (inactive)	27.7 µM (inactive)	66.7 µM (inactive)	> 100 µM (inactive)	50.1 µM (inactive)
COc1ccc2c(c1)CN([C@@H](C)[C@H]1CC[C@H]3[C@@H]4CC[C@H]5C[C@@H](O)CC[C@]5(C)[C@H]4CC[C@]13C)CO2	3.21 µM (inactive)	2.17 µM (inactive)	1.32	2 µM (inactive)	1.61 µM (inactive)	2.42 µM (inactive)	1.75 µM (inactive)	1.7 µM (inactive)	1.03 µM (active)	1.89 µM (inactive)	1.95 µM (inactive)	3.37 µM (inactive)	5.79 µM (inactive)	2.71 µM (inactive)	1.19 µM (inactive)	1.59 µM (inactive)	2.48 µM (inactive)	1.96 µM (inactive)	1.62 µM (inactive)
N#Cc1nc(CCC(C(=O)O)N2C(=O)c3ccccc3C2=O)oc1N (stereo not given)	> 100 µM (inactive)	> 10 µM (inactive)	> 100	> 100 µM (inactive)	> 100 µM (inactive)	> 100 µM (inactive)	> 100 µM (inactive)	> 100 µM (inactive)	> 100 µM (inactive)	> 100 µM (inactive)	> 100 µM (inactive)	> 100 µM (inactive)	> 100 µM (inactive)	> 100 µM (inactive)	> 100 µM (inactive)	> 100 µM (inactive)	> 100 µM (inactive)	> 100 µM (inactive)	> 100 µM (inactive)
Cc1ccnc2nc(-c3ccc(Cl)cc3)cc(O)c12	> 24.9 µM (inactive)	4.46 µM (inactive)	2.32	8.41 µM (inactive)	3.9 µM (inactive)	14.8 µM (inactive)	0.578 µM (active)	0.752 µM (active)	3.99 µM (inactive)	6.31 µM (inactive)	2.58 µM (inactive)	3.88 µM (inactive)	4.89 µM (inactive)	> 27 µM (inactive)	8.45 µM (inactive)	5.74 µM (inactive)	7.78 µM (inactive)	19.1 µM (inactive)	4.07 µM (inactive)
O=C(C[C@@H]1NCCC[C@H]1O)Cn1cnc2cc(Br)c(Cl)cc2c1=O	0.0233 µM (active)	0.023 µM (active)	0.0276	0.0279 µM (active)	0.0274 µM (active)	0.0284 µM (active)	0.012 µM (active)	0.0138 µM (active)	0.0266 µM (active)	0.0195 µM (active)	< 0.0147 µM (active)	0.0416 µM (active)	< 0.0176 µM (active)	< 0.0117 µM (active)	0.0277 µM (active)	0.023 µM (active)	0.0274 µM (active)	0.0204 µM (active)	0.0252 µM (active)
CCOc1ccc2nc3nc(O)nc(C)c3c(NCCCN(CC)CC)c2c1	> 100 µM (inactive)	> 100 µM (inactive)	> 100	> 100 µM (inactive)	> 100 µM (inactive)	> 100 µM (inactive)	> 100 µM (inactive)	> 100 µM (inactive)	> 100 µM (inactive)	> 100 µM (inactive)	> 100 µM (inactive)	> 100 µM (inactive)	> 100 µM (inactive)	> 100 µM (inactive)	> 100 µM (inactive)	> 100 µM (inactive)	> 100 µM (inactive)	> 100 µM (inactive)	> 100 µM (inactive)
Cc1ccc(S(=O)(=O)Oc2coc(CO)cc2=O)cc1	18 µM (inactive)	4.25 µM (inactive)	13.3	14.7 µM (inactive)	19.5 µM (inactive)	18.6 µM (inactive)	6.85 µM (inactive)	8.02 µM (inactive)	13.4 µM (inactive)	16.8 µM (inactive)	1.76 µM (inactive)	22.8 µM (inactive)	15.3 µM (inactive)	17.6 µM (inactive)	13.5 µM (inactive)	20.2 µM (inactive)	17.3 µM (inactive)	14.6 µM (inactive)	9.84 µM (inactive)
